The target in the first assay is T1, Poly [ADP-ribose] polymerase 1 (Homo sapiens, UniProt P09874). The experiment in a line: Ratio of quinazoline-4(3H)-one IC50 to compound IC50 for PARP1.
T1 sequence (P09874 whole entry): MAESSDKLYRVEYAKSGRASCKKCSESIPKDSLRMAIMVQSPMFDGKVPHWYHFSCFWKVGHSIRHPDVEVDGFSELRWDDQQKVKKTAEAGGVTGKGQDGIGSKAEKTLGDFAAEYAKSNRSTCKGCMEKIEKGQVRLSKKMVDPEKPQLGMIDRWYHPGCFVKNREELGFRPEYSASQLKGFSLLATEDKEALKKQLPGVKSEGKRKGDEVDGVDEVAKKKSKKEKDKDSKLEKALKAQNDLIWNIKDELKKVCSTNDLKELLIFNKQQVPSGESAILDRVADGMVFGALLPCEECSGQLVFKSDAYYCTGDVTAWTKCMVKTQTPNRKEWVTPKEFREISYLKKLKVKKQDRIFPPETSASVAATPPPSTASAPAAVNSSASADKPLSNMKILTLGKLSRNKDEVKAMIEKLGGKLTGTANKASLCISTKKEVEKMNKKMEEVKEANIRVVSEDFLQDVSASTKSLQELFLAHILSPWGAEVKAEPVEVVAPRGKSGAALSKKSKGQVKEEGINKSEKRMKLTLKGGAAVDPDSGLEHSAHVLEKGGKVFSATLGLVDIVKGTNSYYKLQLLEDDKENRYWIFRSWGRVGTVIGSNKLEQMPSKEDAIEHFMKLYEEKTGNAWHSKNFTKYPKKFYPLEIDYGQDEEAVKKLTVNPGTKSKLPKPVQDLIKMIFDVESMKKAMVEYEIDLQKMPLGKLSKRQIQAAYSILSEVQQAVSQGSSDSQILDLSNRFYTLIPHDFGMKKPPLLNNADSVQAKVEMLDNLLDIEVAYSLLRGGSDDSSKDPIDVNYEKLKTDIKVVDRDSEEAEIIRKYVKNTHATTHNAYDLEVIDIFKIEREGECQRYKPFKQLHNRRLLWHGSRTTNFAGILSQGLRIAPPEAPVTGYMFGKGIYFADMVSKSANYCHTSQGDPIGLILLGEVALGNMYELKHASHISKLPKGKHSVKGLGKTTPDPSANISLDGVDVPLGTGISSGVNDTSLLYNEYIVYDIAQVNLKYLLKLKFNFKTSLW
Settings: not given
Regarding `Cc1cc(C)c2nc[nH]c(=O)c2c1`, the Ratio IC50 amounted to 4. Consider `Cc1cccc2c(=O)[nH]cnc12`, for which the Ratio IC50 is 4.

Another assay has as its system MEF. The experiment in a line: Antiproliferative activity against wild type MEF cells assessed as cell viability after 72 hrs by MTT assay. As to conditions: Mus musculus. In kind it is cell-based. (Tetrazolium assays rely on reduction of a dye to a coloured formazan, in cell work by metabolically active cells.)
By IC50 is commonly meant the concentration that gives 50% inhibition. Take `Cc1nc(O)c2cccc(C)c2n1`: the IC50 worked out at 177 µM. With `CN(C)CC(=O)Nc1ccc2[nH]c(=O)c3ccccc3c2c1` [PJ34], the IC50 came out at 19.8 µM. For the molecule `Cc1nc2c(N)cccc2c(=O)[nH]1`, the concentration for half-maximal inhibition (IC50) is over 500 µM.

For `Nc1cccc2c(=O)[nH]cnc12`, the IC50 is over 600 µM.

In another assay the target is T1, Poly [ADP-ribose] polymerase 1. The experiment in a line: Inhibition of PARP1 using TACS-Sapphire substrate for 30 mins by colorimetry.
Settings: not given
Consider `Cc1nc(O)c2cccc(C)c2n1`, for which it took 0.49 µM to reach half-maximal inhibition (IC50). Same read-out and setting: next, `Cc1nc2cccc(F)c2c(=O)[nH]1`: 1.97 µM. Same read-out and setting: for `O=c1[nH]cnc2cc(C(F)(F)F)ccc12` the value was 7.5 µM; for `Cc1cc(C)c2nc(C)[nH]c(=O)c2c1`, 13.2 µM; for `Cc1nc2c(N)cccc2c(=O)[nH]1`, 0.4 µM. `Cc1nc2cccc(C)c2c(=O)[nH]1` gave a half-maximal inhibitory concentration (IC50) of 5.31 µM. Consider `O=c1[nH]cnc2c(F)cccc12`, for which the midpoint of inhibition, the IC50, lay at 18.8 µM.

Consider `Cc1cc(C)c2nc[nH]c(=O)c2c1`, for which the 50% inhibitory concentration (IC50) was 1.39 µM. For `O=c1[nH]cnc2ccc([N+](=O)[O-])cc12`, the half-inhibitory concentration (IC50) is 25 µM. The same measure, in the same setting: next, `O=c1[nH]cnc2c(Cl)cccc12`: 5.65 µM; `O=c1[nH]cnc2ccc(Cl)cc12`: 11 µM; `Cc1ccc2nc[nH]c(=O)c2c1`: 25 µM. Take `Cc1nc2cccc(Cl)c2c(=O)[nH]1`: half-maximal inhibition (IC50) was put at 1.18 µM. In turn, `Cc1cccc2c(=O)[nH]cnc12` displayed an IC50 of 1.32 µM. Still for that read-out and setting: next, `Cc1nc2c(Cl)cccc2c(=O)[nH]1`: 2.65 µM.

On to `Nc1cccc2c(=O)[nH]cnc12`, for which the concentration for half-maximal inhibition (IC50) came out at 0.76 µM. `O=c1[nH]cnc2cccc(Cl)c12` returned an IC50 of 3.19 µM. In turn, `O=c1[nH]cnc2cccc(F)c12` registered a 50% inhibitory concentration (IC50) of 7.04 µM. `O=c1[nH]cnc2ccc(F)cc12` came in with a 50% inhibitory concentration (IC50) of 9.01 µM.

A further assay deals with MEF. Description: Antiproliferative activity against MEF cells harboring Brca1 deletion mutant at exon 11 assessed as cell viability after 72 hrs by MTT assay. The conditions noted are these: Mus musculus. The class given is functional, cell-based.
With `Cc1nc(O)c2cccc(C)c2n1`, the IC50 worked out at 15.1 µM. On the same count and under the same terms, next, `CN(C)CC(=O)Nc1ccc2[nH]c(=O)c3ccccc3c2c1` [PJ34]: 13.2 µM; `Cc1nc2c(N)cccc2c(=O)[nH]1`: 49 µM. Consider `Nc1cccc2c(=O)[nH]cnc12`, for which the IC50 is over 600 µM.

Another assay deals with T1, Poly [ADP-ribose] polymerase 1. Description: Inhibition of PARP1 at 25 uM using TACS-Sapphire substrate for 30 mins by colorimetry.
Settings: not given
A word on the inhibition: it is the relative decrease from the control value, in per cent. Turning to `O=c1[nH]cnc2cc(F)ccc12`, the inhibition was under 40%. On to `O=c1[nH]cnc2c(C(F)(F)F)cccc12`, for which the inhibition turned out to be 40%.

`Nc1ccc2nc[nH]c(=O)c2c1` yielded an inhibition of 40%. Molecule `Cc1ccc2c(=O)[nH]cnc2c1` registered an inhibition of 40%. The same measure, in the same setting: for `O=c1[nH]cnc2ccc(I)cc12` the value was 40%; for `Cc1cccc2nc[nH]c(=O)c12`, 40%. On the same count and under the same terms, for `Nc1ccc2c(=O)[nH]cnc2c1` the value was under 40%.

Take `O=[N+]([O-])c1cccc2c(O)ncnc12`: the inhibition was under 40%. On the same count and under the same terms, for `Oc1ncnc2cc(Cl)ccc12` the value was under 40%. As for `Cc1ccc2nc[nH]c(=O)c2c1`, the inhibition was 40%. Same read-out and setting: next, `COc1cc2nc[nH]c(=O)c2cc1OC`: under 40%; `O=c1[nH]cnc2cc([N+](=O)[O-])ccc12`: under 40%; `O=[N+]([O-])c1ccc2ncnc(O)c2c1`: 40%.

`O=c1[nH]cnc2ccc(O)cc12` yielded an inhibition of 40%. For `O=c1[nH]cnc2cc(F)c(F)cc12`, the inhibition is under 40%.

The test system of another assay is MEF. Description: Ratio of IC50 for wild type MEF cells to MEF cells harboring Brca1 deletion mutant at exon 11. In kind it is functional, Mus musculus.
Settings: not given
As for `Cc1nc(O)c2cccc(C)c2n1`, the “Ratio IC50” value is 12. The same measure, in the same setting: for `Cc1nc2c(N)cccc2c(=O)[nH]1` the value was over 10.

The values above are taken from ChEMBL document CHEMBL1949644, “Synthesis and SAR optimization of quinazolin-4(3H)-ones as poly(ADP-ribose)polymerase-1 inhibitors” (Eur J Med Chem, 2012).
